In US20030186816A1, “Herbicide combinations comprising specific sulfonylureas” (Bayer CropScience GmbH, priority 2002, published 2003):

Experiments:
Format in all cases: in vivo
Avena ludoviciana = assay: Herbicidal action (outdoor trials); details: 750 g of AS/ha, scored approx. 4-6 weeks after application
Experimental: (§1) Herbicidal Action (Outdoor Trials)
(§2) The seeds or rhizome pieces of typical harmful plants were planted and grown under natural outdoor conditions. After the harmful plants had emerged, they were treated, as a rule at the 2- to 4-leaf stage, with various dosages of the compositions according to the invention at a water application rate of 100 to 400 l/ha (converted).
(§3) After the treatment (approx. 4-6 weeks after application), the herbidical activity of the active compounds or active compound mixtures was scored visually by comparing the treated plots with the untreated control plots. Damage and development of all above-ground parts of the plants was recorded. Scoring was done on a percentage scale (100% action=all plants dead; 50% action=50% of the plants and green plant parts dead; 0% action=no discernible action=like control plot). The score figures of in each case 4 plots were averaged. The results are listed in the tables below, where the activity measured for the independent use of the active compounds (A+B) and C) is stated in brackets.

Wheat = assay: Crop damage in outdoor trials; details: 750 g of AS/ha, scored approx. 4-6 weeks after application, trial with Avena ludoviciana
Experimental: as §1, §2, §3

Papaver rhoeas = assay: Herbicidal action (outdoor trials); details: scored approx. 4-6 weeks after application
Experimental: as §1, §2, §3

Winter wheat = assay: Crop damage in outdoor trials
Experimental: as §1, §2, §3

Veronic pericaria = assay: Herbicidal action (outdoor trials); details: 150 g of AS/ha, scored approx. 4-6 weeks after application
Experimental: as §1, §2, §3

Brassica naupus = assay: Herbicidal action (outdoor trials); details: 30 g of AS/ha, scored approx. 4-6 weeks after application
Experimental: as §1, §2, §3

Aspera spica venti = assay: Herbicidal action (outdoor trials); details: 30 g of AS/ha, scored approx. 4-6 weeks after application
Experimental: as §1, §2, §3

Polygonum convolvulus = assay: Herbicidal action (outdoor trials); details: 30 g of AS/ha, scored approx. 4-6 weeks after application
Experimental: as §1, §2, §3

Physalis spp. = assay: Herbicidal action (outdoor trials); details: 30 g of AS/ha, scored approx. 4-6 weeks after application
Experimental: as §1, §2, §3

Summer wheat = assay: Crop damage in outdoor trials; details: 30 g of AS/ha, scored approx. 4-6 weeks after application
Experimental: as §1, §2, §3

In the case of Cc1cc(Cl)ccc1OCC(=O)O [C), (4-chloro-2-methylphenoxy)acetic acid], the “Avena ludoviciana % activity” value (Avena ludoviciana) was 0% and the “Wheat wheat % damage” value (Wheat) was 0%.

COc1nc(C)nc(NC(=O)NS(=O)(=O)c2ccccc2OCCCl)n1 [D), 1-[2-(2-chloroethoxy)phenylsulfonyl]-3-(4-methoxy-6-methyl-1,3,5-triazin-2-yl)urea] was tested, and the “Papaver rhoeas % activity” value (Papaver rhoeas; 15 g of AS/ha) was 65% and the “Winter wheat % damage” value (Winter wheat; 15 g of AS/ha, outdoor, scored approx. 4-6 weeks after application, trial with Papaver rhoeas) was 0%.

For N#Cc1cc(Br)c(O)c(Br)c1 [E), 3,5-dibromo-4-hydroxy-benzonitrile], the “Papaver rhoeas % activity” value (Papaver rhoeas; 240 g of AS/ha) was 85% and the “Winter wheat % damage” value (Winter wheat; 240 g of AS/ha, outdoor, scored approx. 4-6 weeks after application, trial with Papaver rhoeas) was 0%.

Nc1c(Cl)c(F)nc(OCC(=O)O)c1Cl [I), 4-amino-3,5-dichloro-6-fluoro-2-pyridyloxy acetic acid] was tested, and the “Veronic pericaria % activity” value (Veronic pericaria) was 50% and the “Winter wheat % damage” value (Winter wheat; in vivo) was 1%.

CCOC(=O)[C@@H](C)Oc1ccc(Oc2nc3ccc(Cl)cc3o2)cc1 [J), fenoxaprop-P-ethyl] was tested, and the “Brassica naupus % activity” value (Brassica naupus) was 0%, the “Aspera spica venti % activity” value (Aspera spica venti) was 25% and the “Polygonum convolvulus % activity” value (Polygonum convolvulus) was 0%. The “Physalis spp. % activity” value (Physalis spp.) was 0% and the “Summer wheat % damage” value (Summer wheat) was 0%.
